Laboratory results taken from BindingDB's records for patent US12209081 (Katholieke Universiteit Leuven, 2025).

molecular target: Transient receptor potential cation channel subfamily M member 3 (UniProt J9SQF3); experiment: Monitoring the TRPM3 Ion Channel Driven Ca2+ Uptake
Procedure: In order to monitor the inhibition of the mouse TRPM3α2 (mTRPM3) ion channel by the compounds of the invention, a cellular system making use of an mTRPM3alpha2 or hTRPM3 overexpressing cell line (flip-in HEK293) was used. The TRPM3 channel was stimulated/opened with Pregnenolone sulfate (PS) (50 μM) which results in Ca2+ influx. For mTRPM3, the intracellular Ca2+ was measured with a Calcium responsive dye. Fluor-4 AM ester (Invitrogen). Cells were cultured until a confluence of 80-90%, washed with Versene (Invitrogen) and detached from the surface by a short incubation with 0.05% Trypsin (Invitrogen). The trypsination process was stopped by the addition of complete cell culture medium (DMEM, glutamax, 10% FCS,NEAA,Pen-Strep). Cells were collected and resuspended in Krebs buffer without Calcium at RT. Prior the cell seeding (±2000 cells/well into a black, 384 well plate (Greiner)) the diluted compound was added in the assay plate, together with the PS dissolved in Krebs buffer containing Calcium. […] Directly after cell addition the plates were read on an Envision fluorescence reader (Perkin Elmer) by an Excitation of 485 nm and emission at 535 nm. Channel inhibition was calculated compared to a non-PS stimulated control versus a condition stimulated with PS (50 μM) with vehicle. The ability of the compounds of the invention to inhibit this activity was determined as: Percentage inhibition=[1-((RFU determined for sample with test compound present—RFU determined for sample with positive control inhibitor) divided by (RFU determined in the presence of vehicle—RFU determined for sample with positive control inhibitor))]*100.

Chain of Transient receptor potential cation channel subfamily M member 3 (J9SQF3 whole entry): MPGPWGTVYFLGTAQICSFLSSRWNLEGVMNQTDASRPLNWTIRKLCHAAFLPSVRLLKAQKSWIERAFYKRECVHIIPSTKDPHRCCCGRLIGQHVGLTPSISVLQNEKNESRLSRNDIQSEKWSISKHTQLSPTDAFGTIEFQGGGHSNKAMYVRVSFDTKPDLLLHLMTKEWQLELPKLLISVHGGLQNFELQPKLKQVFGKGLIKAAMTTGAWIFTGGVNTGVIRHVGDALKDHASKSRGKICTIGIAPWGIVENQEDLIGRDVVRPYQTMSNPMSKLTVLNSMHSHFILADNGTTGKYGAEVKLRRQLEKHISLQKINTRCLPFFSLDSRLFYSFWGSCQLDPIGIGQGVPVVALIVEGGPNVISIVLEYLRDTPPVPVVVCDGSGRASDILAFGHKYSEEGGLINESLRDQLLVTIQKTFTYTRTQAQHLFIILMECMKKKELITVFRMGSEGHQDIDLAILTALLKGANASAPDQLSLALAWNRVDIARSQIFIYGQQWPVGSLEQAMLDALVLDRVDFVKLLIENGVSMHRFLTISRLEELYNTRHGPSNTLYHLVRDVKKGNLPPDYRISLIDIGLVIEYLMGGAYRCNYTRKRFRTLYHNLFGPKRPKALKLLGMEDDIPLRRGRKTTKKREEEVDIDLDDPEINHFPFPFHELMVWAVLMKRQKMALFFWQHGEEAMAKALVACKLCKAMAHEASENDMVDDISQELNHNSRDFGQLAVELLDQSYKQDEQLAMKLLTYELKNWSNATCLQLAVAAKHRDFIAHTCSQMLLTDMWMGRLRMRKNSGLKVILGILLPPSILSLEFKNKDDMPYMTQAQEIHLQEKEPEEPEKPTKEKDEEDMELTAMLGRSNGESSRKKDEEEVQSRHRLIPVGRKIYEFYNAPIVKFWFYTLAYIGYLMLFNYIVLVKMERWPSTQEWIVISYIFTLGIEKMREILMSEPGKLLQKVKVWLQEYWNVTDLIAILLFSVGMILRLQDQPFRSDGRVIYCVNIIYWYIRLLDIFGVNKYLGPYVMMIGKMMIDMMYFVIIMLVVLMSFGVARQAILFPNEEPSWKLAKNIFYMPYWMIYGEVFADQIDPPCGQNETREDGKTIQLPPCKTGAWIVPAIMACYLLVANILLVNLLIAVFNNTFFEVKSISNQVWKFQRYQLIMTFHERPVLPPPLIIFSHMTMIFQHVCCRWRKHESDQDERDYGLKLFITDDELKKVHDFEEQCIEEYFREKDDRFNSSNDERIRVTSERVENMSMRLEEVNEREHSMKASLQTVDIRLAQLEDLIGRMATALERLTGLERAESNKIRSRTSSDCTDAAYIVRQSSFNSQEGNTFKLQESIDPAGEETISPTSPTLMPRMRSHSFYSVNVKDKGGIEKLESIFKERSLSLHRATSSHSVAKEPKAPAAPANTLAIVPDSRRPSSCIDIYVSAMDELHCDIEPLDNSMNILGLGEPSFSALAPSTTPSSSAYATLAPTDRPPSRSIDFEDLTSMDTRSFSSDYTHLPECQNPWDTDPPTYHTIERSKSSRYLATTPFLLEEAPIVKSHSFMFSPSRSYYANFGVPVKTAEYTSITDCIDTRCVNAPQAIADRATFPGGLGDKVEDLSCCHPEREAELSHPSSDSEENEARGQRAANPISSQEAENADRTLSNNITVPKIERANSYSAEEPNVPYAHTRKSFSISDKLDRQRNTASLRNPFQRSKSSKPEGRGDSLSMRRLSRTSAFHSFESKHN

SMILES | IC50
Cc1oc2ccc(OCc3ccnn3CC(F)F)cc2c1C(=O)N[C@H](CO)C(N)=O [US12209081, Compound 456-En-2] | < 1000 nM
Cc1oc2ccc(OCc3cccnc3C#N)cc2c1C(=O)NC1(CO)CCOCC1 [US12209081, Compound 347] | < 1000 nM
Cc1oc2ccc(OCc3cccnc3C(F)(F)F)cc2c1C(=O)Nc1cc[nH]n1 [US12209081, Compound 138] | < 1000 nM
Cc1oc2ccc(OCc3cccnc3C(F)(F)F)cc2c1C(=O)NC1(CO)COC1 [US12209081, Compound 133] | < 1000 nM
Cc1nc(C)c(COc2ccc3oc(C)c(C(=O)N[C@H](CO)C(N)=O)c3c2)s1 [US12209081, Compound 458-En-2] | < 1000 nM
Cc1oc2ccc(OCc3cccnn3)cc2c1C(=O)NC1CCNC1=O (stereo not drawn) [US12209081, Compound 030] | < 1000 nM
Cc1ncsc1COc1ccc2oc(C)c(C(=O)NC3(CN)CCC3)c2c1 [US12209081, Compound 137] | < 1000 nM
Cc1oc2ccc(OCc3cncc(C(F)(F)F)c3)cc2c1C(=O)N[C@H]1CCNC1 [US12209081, Compound 055] | > 20000 nM
